Data reported in patent publication US7754866B2 (Arena Pharmaceuticals, Inc., priority 1997, dated 2010).
Changes are numbered by the printed parent chain. Like-named read-outs stand apart in the source and are kept apart here.

Key:
[1] = target: T1, mutated human 5HT2C receptor (AP-1) (Homo sapiens, UniProt P28335, S310K); assay: Competitive binding assay, [3H]mesulergine, AP-1; conditions: Competitive Binding AP-1 ([3H]mesulergine) IC50 Value (μM), 1 nM [3H]mesulergine, COS7 membranes
T1 construct: expressed in transfected cells; host or cells: COS7 cells, pCMV vector, transient
T1 sequence (P28335 33-458 S310K): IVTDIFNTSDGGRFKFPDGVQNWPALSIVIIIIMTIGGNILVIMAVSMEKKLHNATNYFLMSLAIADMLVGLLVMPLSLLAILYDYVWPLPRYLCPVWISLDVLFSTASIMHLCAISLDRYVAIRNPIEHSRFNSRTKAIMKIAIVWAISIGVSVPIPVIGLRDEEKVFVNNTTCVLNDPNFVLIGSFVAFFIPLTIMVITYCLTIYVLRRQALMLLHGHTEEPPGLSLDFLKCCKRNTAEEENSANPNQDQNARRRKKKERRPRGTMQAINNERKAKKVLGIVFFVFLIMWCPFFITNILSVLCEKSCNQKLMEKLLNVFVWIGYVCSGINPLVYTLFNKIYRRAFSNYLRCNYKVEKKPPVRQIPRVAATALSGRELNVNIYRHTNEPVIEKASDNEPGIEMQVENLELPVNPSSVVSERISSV

[2] = target: T2, wild type human 5HT2A receptor (Homo sapiens, UniProt P28223); assay: Competitive binding assay, [3H]LSD, WT 5HT2A
T2 construct: expressed in transfected cells; host or cells: COS-7 cells, pCMV vector
T2 sequence (P28223 whole entry T25N/H452Y): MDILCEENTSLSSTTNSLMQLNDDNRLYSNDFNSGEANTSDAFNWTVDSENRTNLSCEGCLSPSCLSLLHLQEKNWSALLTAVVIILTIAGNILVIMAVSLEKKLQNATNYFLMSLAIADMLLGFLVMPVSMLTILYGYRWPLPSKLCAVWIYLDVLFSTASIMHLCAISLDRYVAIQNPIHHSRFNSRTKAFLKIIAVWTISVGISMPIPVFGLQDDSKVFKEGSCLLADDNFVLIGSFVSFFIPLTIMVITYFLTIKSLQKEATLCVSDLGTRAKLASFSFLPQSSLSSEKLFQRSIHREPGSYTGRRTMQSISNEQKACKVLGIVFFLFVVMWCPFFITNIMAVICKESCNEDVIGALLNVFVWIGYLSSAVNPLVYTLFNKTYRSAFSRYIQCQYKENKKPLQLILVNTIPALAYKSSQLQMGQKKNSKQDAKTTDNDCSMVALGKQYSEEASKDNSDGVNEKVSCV

[3] = target: T3, human mutated 5HT2A receptor, AP-3 (Homo sapiens, UniProt P28223, T25N); assay: Inositol phosphate accumulation assay, AP-3; assay type: cell-based;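 note: transfected 293 cells prelabeled with 3H-inositol, exposed to compound 120 min at 37 °C with LiCl and pargyline, inositol trisphosphates isolated by anion exchange and counted by scintillation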
T3 construct: Inositol Phosphate Accumulation AP-3 IC50 Value (nM); other: several concentrations; IP3 % of Control; other: one concentration of 10 μM, triplicate; control without test compound
T3 sequence (P28223 whole entry T25N, looked up): as the sequence (P28223 whole entry T25N/H452Y) above, with Y452H counted along it

[4] = target: T4, 5HT2A receptors (fourth layer of the cerebral cortex) (Rattus norvegicus, UniProt P14842); assay: I125-LSD displacement from rat brain sections, cerebral cortex; assay type: binding, Sprague-Dawley rats; conditions: 1 micromolar compound, 1 nanomolar I125-LSD, autoradiography
T4 construct: from tissue; host or cells: horizontal sections of Sprague-Dawley rat brain, cerebral cortex
T4 sequence (P14842 whole entry): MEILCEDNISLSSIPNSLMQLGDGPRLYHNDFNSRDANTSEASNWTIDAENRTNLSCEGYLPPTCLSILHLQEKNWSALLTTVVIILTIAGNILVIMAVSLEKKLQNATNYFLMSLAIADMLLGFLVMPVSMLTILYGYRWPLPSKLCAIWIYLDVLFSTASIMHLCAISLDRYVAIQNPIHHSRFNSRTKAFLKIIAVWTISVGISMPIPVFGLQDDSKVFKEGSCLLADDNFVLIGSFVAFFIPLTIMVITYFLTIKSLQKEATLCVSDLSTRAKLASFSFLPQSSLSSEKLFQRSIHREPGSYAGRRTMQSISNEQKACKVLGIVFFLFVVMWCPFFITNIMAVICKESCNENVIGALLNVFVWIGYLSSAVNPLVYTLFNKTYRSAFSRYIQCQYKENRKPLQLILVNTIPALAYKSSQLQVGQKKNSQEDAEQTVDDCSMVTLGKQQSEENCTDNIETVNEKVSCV

[5] = test system: dopamine D2 receptors (caudate nucleus); assay: I125-LSD displacement from rat brain sections, caudate nucleus; assay type: binding, Sprague-Dawley rats; conditions: 1 micromolar compound, 1 nanomolar I125-LSD, autoradiography
[6] = target: T5, human mutated 5HT2A receptor, AP-3 (Homo sapiens, UniProt P28223, T25N, form not given); assay: Inositol phosphate accumulation assay, AP-3; assay type: cell-based; conditions: summary statement;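 note: transfected 293 cells prelabeled with 3H-inositol, exposed to compound 120 min at 37 °C with LiCl and pargyline, inositol trisphosphates isolated by anion exchange and counted by scintillation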
T5 construct: rows headed: inverse agonist activity at the human 5HT2A receptor; other: summary statement; fused on or other part: Possibly intracellular loop 3 and cytoplasmic tail of human 5-HT2C (P28335), if the statement rests on AP-3
T5 sequence (P28223 whole entry T25N, looked up, form open, the tested form may be a part): as the sequence (P28223 whole entry T25N/H452Y) above, with Y452H counted along it

[7] = test system: amphetamine-stimulated locomotion; assay: Amphetamine-stimulated locomotor activity; assay type: in vivo, Sprague-Dawley rats; conditions: rats, s.c. 0.1, 1.0, 5.0 mg/kg; with exception of the highest dose (10 mg/kg); d-amphetamine sulfate 1.0 mg/kg
Source text: A 5HT2A receptor antagonist or inverse agonist is expected to decrease amphetamine-stimulated locomotion without affecting baseline locomotion See, for example, Soresnon, et al, 266(2) J. Pharmacol. Exp. Ther. 684 (1993). […] For the following study, the following parameters and protocol were utilized:
Adult male Sprague-Dawley rats were utilized for these studies. Animals were housed in groups of 2-3 in hanging plastic cages with food and water available at all times. Animals were weighed and handled for at least one day prior to surgery and throughout the studies. For these studies, Vehicle consisted of 90% ethanol (100%) and 10% water.
A San Diego Instruments Flex Field apparatus was used to quantify baseline and amphetamine-stimulated locomotor activity. This apparatus consists of four 16″×16″ clear plastic open fields. Photocell arrays (16 in each dimension) interfaced with a personal computer to automatically quantify activity. Several measures of activity can be assessed with the apparatus, including total photocell beam breaks. Animals (vehicle control and Compound treated) were injected s.c. 30 minutes prior to initiation of analysis. Following this 30 minute period, animals were placed individually into an open field and baseline activity was assessed for 30 minutes (habituation phase). […]

[8] = target: T6, constitutively active mutant human 5HT2C receptor AP-1 (Homo sapiens, UniProt P28335, S310K); assay: [35S]GTPγS binding assay with membranes of COS7 cells expressing AP-1; assay type: biochemical
T6 construct: expressed in transfected cells; host or cells: COS7 cells, pCMV vector, transient
T6 sequence (P28335 33-458 S310K): T1 sequence (P28335 33-458 S310K)

[9] = target: T7, endogenous human 5-HT2C receptor (Homo sapiens, UniProt P28335)
T7 sequence (P28335 33-458): T1 sequence (P28335 33-458 S310K) with K278S

[10] = Inositol Phosphate Accumulation AP-3 IC50 Value (μM)
[11] = competitive binding using LSD, read-out: WT 5HT2A LSD IC50
[12] = several concentrations, read-out: IP3 AP-3 IC50
[13] = 12.5 μg COS7 membranes expressing AP-1, 1 μM GDP, eight concentrations in triplicate, read-out: IC50 (nM) in GTP-γ-[35S] Assay

COc1ccc(OC(=O)Nc2cccc(-c3nn(C)cc3Br)c2)cc1 [Compound 116100, N-[3-(4-bromo-1-methylpyrazol-3-yl)phenyl][4-methoxyphenoxy]carboxamide]
IC50 [1]: 1.8 µM
IC50 [2]: < 1 nM
IC50 [3, 10]: 0.0003 µM
displacement of I125-LSD from the cortex (5HT2A) [4]: selectively displace
displacement of I125-LSD from the caudate (dopamine D2) [5]: not the caudate
melting point: 140.3 to 141.8 °C

Cn1cc(Br)c(-c2cccc(NC(=O)c3ccc(OC(F)(F)F)cc3)c2)n1 [Compound 116101, N-[3-(4-bromo-1-methylpyrazol-3-yl)phenyl][4-trifluoromethoxyphenyl]carboxamide]
melting point: 138.6 to 139.6 °C

Cn1cc(Br)c(-c2cccc(NC(=O)c3cccs3)c2)n1 [Compound 116102, N-[3-(4-bromo-1-methylpyrazol-3-yl)phenyl][2-thienyl]carboxamide]
IC50 [1]: 2.8 µM
inverse agonist activity at the human 5HT2A receptor [6]: potent inverse agonist
amphetamine-stimulated locomotion (photobeam breaks) [7]: decrease
melting point: 127.8 to 128.6 °C

Cn1cc(Br)c(-c2cccc(NC(=O)NCc3ccc(OC(F)(F)F)cc3)c2)n1 [Compound 116115]
IC50 [1]: 1.2 µM
melting point: 144.6 to 145.8 °C

Cn1cc(Br)c(-c2cccc(NC(=O)c3ccc(Cl)cc3)c2)n1 [Compound 116120, N-[3-(4-bromo-1-methylpyrazol-3-yl)phenyl][4-chlorophenyl]carboxamide]
IC50 [1]: 1.2 µM
melting point: 184.4 to 184.8 °C

Cn1cc(Br)c(-c2cccc(NC(=O)NCc3ccc(F)cc3)c2)n1 [Compound 116182, N-[3-(4-bromo-1-methylpyrazol-3-yl)phenyl]-[{(4-fluorophenyl)methyl}amino]carboxamide]
IC50 [2, 11]: 132 nM
IC50 [3, 12]: 0.089 µM

Cn1cc(Br)c(-c2cccc(NC(=O)OC(C)(C)C)c2)n1 [Compound 116192]
IC50 [2]: 14 nM
IC50 [3, 10]: 0.057 µM

COc1ccc(CCNC(=O)Nc2cccc(-c3nn(C)cc3Br)c2)cc1 [Compound 116194, N-[3-(4-bromo-1-methylpyrazol-3-yl)phenyl][{2-(4-methoxyphenyl)ethyl}amino]carboxamide]
IC50 [2, 11]: 61 nM
IC50 [3, 12]: 0.032 µM

CSc1ccc2c(c1)C(N1CCN(C)CC1)Cc1ccccc1S2 (centres unmarked) [Methiothepin]
IC50 [8, 13]: 20.4 nM

CC[C@@H](CO)NC(=O)[C@@H]1C=C2c3cccc4c3c(cn4C)C[C@H]2N(C)C1 [Methysergide]
IC50 [8]: 6.1 nM

Clc1ccc2c(c1)N=C(N1CCNCC1)c1ccccc1N2 [Normethylclozapin]
IC50 [8, 13]: 21.4 nM

Cc1nc2sccn2c(=O)c1CCN1CCC(=C(c2ccc(F)cc2)c2ccc(F)cc2)CC1 [Ritanserin]
IC50 ([8]; read-out: IC50 (nM) in GTP-γ-[35S] Assay): 19.4 nM

CN1CCN2c3ccccc3Cc3ccccc3C2C1 (centres unmarked) [mianserin]
effect on basal constitutive binding of [35S]GTPγS [9]: partial inverse agonist
inhibition of serotonin-stimulated [35S]GTPγS binding ([9]; 30 μM): completely inhibited

O=C(CCCN1CCC2(CC1)C(=O)NCN2c1ccccc1)c1ccc(F)cc1 [spiperone, reference compound]
displacement of I125-LSD from the cortex (5HT2A) [4]: displaces
displacement of I125-LSD from the caudate (dopamine D2) [5]: displaces
